Entries after “also recorded” stand apart in the source; their conditions may differ.
How the values were obtained:
Influenza = test: Anti-Influenza antibody generation in BALB/c mice following immunization with the Fluviral vaccine (ELISA); assay type: in vivo; settings: intramuscular
Experimental: To test the adjuvant potential of LTB4, groups of 10 BALB/c mice were immunized once by intramuscular injection with 5 μl of the commercial “Fluviral” vaccine preparation in combination with saline or 1 ng of LTB4. Fourteen days following immunization, mice were bled and sera analyzed for specific anti-Influenza IgG antibodies by ELISA.
Adult (6-8 weeks) BALB/c female mice were immunized by intramuscular injection with 5 μl of the commercial Influenza (Fluviral) vaccine in combination or not with 1 ng of LIB4. Fourteen days later, mice were bled by cardiac puncture and sera obtained. Anti-Influenza antibodies were quantitated by enzyme-linked immunosorbent assay (ELISA). Wells of a 96-well plate were coated with the Fluvial vaccine preparation ( 1/100 dilution) in 0.1 M carbonate buffer (pH 9.0) by overnight incubation at 4° C. Wells were washed with Tris-buffered saline with 0.1% Tween-20 (TBS-T) followed by the addition of 100 μl of increasing dilutions of the sera to be tested. […] After 30 minutes, the absorbance (405 nm) from each well was recorded using an ELISA plate reader. The values, expressed as optical density (OD), were plotted against the reciprocal of serum dilution.

[1] = system: mycobacterium tuberculosis; assay type: in vivo, BALB/c mice; settings: 1-10 ng LTB4 with BCG vaccine, intradermal on days 0, 24, 68 and 145; sera at day 160
murine CMV [2] = test: Total anti-CMV antibodies following acute CMV infection in BALB/c mice (ELISA); assay type: in vivo; settings: LTB4 5 μg/kg i.p. 3 times a week for 12 weeks from day 5 post-infection
Experimental: Our next series of experiments were designed to test the potential of LTB4 to modulate antibody response during an acute CMV infection. BALB/c mice were infected by intraperitoneal (i.p.) injection with 10,000 pfu of murine CMV. On day 5 post-infection, mice (n=10) received saline by i.p. injection or LTB4 (5 μg/kg) (n=9) by i.p. injection 3 times a week for 12 weeks. At that time, sera was taken from each mouse and tested for anti-CMV specific antibodies.
Adult (6-8 weeks) female BALB/c mice were infected by intraperitoneal (I.P.) injection with 1×10^4 pfa of murine CMV. Starting on the fifth day post-infection, mice were injected with saline or LTB4 (5 μg/kg) by I.P. injection at a frequency of three times a week for 12 weeks. Mice were then bled and sacrificed. Total anti-CMV antibodies from each mouse were quantified by ELISA. ELISA plates were coated with a lysates from CMV-infected fibroblasts as the source of CMV antigens. One μg of protein lysates were added to each well and incubated-overnight at 4° C. After several washes with TBS-T, non-specific sites were blocked by the addition of saline containing 10% fetal bovine serum for one hour at room temperature. […] After 30 minutes, the absorbance (405 nm) from each well was recorded using an ELISA plate reader. The values, expressed as optical density (OD), were plotted against the reciprocal of serum dilution. […]

murine CMV [3] = test: Neutralizing CMV antibodies in sera of CMV-infected mice (plaque reduction on mouse embryonic fibroblast); assay type: in vivo, BALB/c mice; settings: the 7 positive sera of LTB4 treated mice; 1/100 dilution; 175 pfu murine CMV
Experimental: Lastly, the sera from each mouse infected with CMV and treated with saline or LTB4 (see above) were analyzed for neutralizing antibodies. Briefly, a 1/100 dilution of individual serum was incubated with 175 pfu of murine CMV for 1 hour on ice. Samples (sera-virus) were then added to mouse embryonic fibroblast and incubated at 37° C. for 2 hour. Unadsorbed viruses were removed and cells were overlaid with methyl cellulose and incubated for 4 days at 37° C. in a humidified atmosphere with 5% CO2. At this time cells were fixed, colored with violet crystal and the number of plaques (CMV infected foci) counted. […] Uninfected mice had no neutralizing antibodies against CMV, as expected. […] We next compared the neutralizing activity of sera that tested positive for CMV neutralization. The 2 sera of infected mice that received saline were able to reduce, in average, CMV infectivity by 24%. In contrast, the 7 sera of LTB4 treated-mice were found capable of reducing CMV infectivity by 45%, almost twice the activity of control mice.
The serum from each mouse, described above, were tested for their CMV neutralizing activity. Briefly, a 1/100 dilution of individual serum was incubated with 175 pfu of murine CMV for 1 hour on ice. […] At this time cells were fixed, colored with violet crystal and the number of plaques (CMV infected foci) counted. […]

B lymphocytes = settings: cited from earlier work

With `CCCCC/C=C\C[C@@H](O)/C=C/C=C/C=C\[C@@H](O)CCCC(=O)O` [LTB4, Leukotriene B4] the “anti-Influenza IgG antibody response (ELISA OD) versus vaccine + saline” value (Influenza; 1 ng LTB4 with 5 μl Fluviral vaccine, once, sera at day 14, p<0.05 in all three dilutions) was “greater anti-Influenza antibody response; also recorded: significantly higher anti-Influenza antibody response”, the “optimal dose of LTB4 as adjuvant” value (Influenza; with 5 μl Fluviral vaccine) was 1 ng and the “anti-BCG antibodies (ELISA OD) versus BCG + saline” value [1] was “higher levels of anti-BCG antibodies; also recorded: greater reactivity against mycobacterium antigens”. For the same molecule, the “total anti-CMV antibodies (ELISA OD) versus saline-treated group” value (murine CMV [2]) was “more anti-CMV antibodies”, the “reduction of CMV infectivity by sera positive for CMV neutralization (average)” value (murine CMV [3]) was 45% and the “effect on B cell proliferation or immunoglobulin synthesis (IgG or IgM)” value (B lymphocytes; LTB4 by itself, in absence of exogenous cytokines or stimuli, in vitro) was “no effects”. For the same molecule, the “effect on synthesis of immunoglobulin from B lymphocytes” value (B lymphocytes; conflicting paper (Rola-Plecszczynski 1982)) was “inhibitory effects”.

From US7914800B2, “LTB4 as vaccine adjuvant” (priority 2001, dated 2011)
